Source: patent US12564590B2, “Combinations of menin inhibitors and CYP3A4 inhibitors and methods of use thereof” (Syndax Pharmaceuticals, Inc., priority 2020, dated 2026)

Legend:
[1] = target: T1, MLL1 binding pocket on menin (Homo sapiens, UniProt O00255); experiment: binding to the MLL1 binding pocket on menin
T1 sequence (O00255 1-610): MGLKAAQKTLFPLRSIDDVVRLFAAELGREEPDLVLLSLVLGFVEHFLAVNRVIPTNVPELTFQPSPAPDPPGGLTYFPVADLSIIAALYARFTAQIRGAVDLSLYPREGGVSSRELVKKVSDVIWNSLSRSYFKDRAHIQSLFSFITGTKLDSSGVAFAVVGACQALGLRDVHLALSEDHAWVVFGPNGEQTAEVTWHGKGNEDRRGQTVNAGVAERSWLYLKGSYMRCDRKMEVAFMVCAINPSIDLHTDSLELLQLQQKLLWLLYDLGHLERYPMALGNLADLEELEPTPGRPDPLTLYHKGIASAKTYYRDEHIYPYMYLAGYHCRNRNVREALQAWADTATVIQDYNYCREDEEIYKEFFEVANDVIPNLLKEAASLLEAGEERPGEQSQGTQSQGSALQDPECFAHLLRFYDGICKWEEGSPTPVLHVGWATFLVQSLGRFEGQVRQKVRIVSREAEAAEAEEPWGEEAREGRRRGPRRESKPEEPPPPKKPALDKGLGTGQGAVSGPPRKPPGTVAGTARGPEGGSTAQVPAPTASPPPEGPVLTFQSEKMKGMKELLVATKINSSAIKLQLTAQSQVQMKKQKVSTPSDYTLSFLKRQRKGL

[2] = test system: cells harboring MLLr fusions; experiment: activity in cells harboring MLLr fusions; format: cell-based
[3] = test system: leukemic xenograft models; experiment: leukemic xenograft / nonclinical survival models; format: in vivo; conditions: in combination with a CYP3A4 inhibitor; for survival benefit in nonclinical models: oral dosing
[4] = test system: NPM1c mutant AML patient-derived xenograft models; conditions: orally active; cited from earlier work
NPM1c cells = conditions: leading to growth arrest, terminal differentiation and cell death; cited from earlier work

| Structure (SMILES) | binding affinity to the MLL1 binding pocket on menin [1] | activity across a range of cells harboring MLLr fusions [2] | activity in multiple leukemic xenograft models [3] | survival benefit in nonclinical models [3] | anti-leukemic activity [4] | effect on HOXA MEIS1 transcription program (NPM1c cells) |
| --- | --- | --- | --- | --- | --- | --- |
| CC(C)N(C(=O)c1cc(F)ccc1Oc1cncnc1N1CC2(CCN(C[C@H]3CC[C@H](NS(C)(=O)=O)CC3)CC2)C1)C(C)C [Formula I, 5-fluoro-N,N-diisopropyl-2-((4-(7-(((1r,4r)-4-(methylsulfonamido)cyclohexyl)methyl)-2,7-diazaspiro[3.5]nonan-2-yl)pyrimidin-5-yl)oxy)benzamide] | high affinity | displays activity | robust activity | profound survival benefit |  |  |
| CCN(C(=O)c1cc(F)ccc1Oc1cncnc1N1CC2(CCN(C[C@H]3CC[C@H](NS(=O)(=O)CC)CC3)CC2)C1)C(C)C [Formula II, N-ethyl-2-((4-(7-(((1r,4r)-4-(ethylsulfonamido)cyclohexyl)methyl)-2,7-diazaspiro[3.5]nonan-2-yl)pyrimidin-5-yl)oxy)-5-fluoro-N-isopropylbenzamide] | high affinity | displays activity | robust activity | profound survival benefit |  |  |
| CNc1nc(NC2CCN(Cc3ccc4c(cc(C#N)n4C[C@H](C)N4CCN(S(C)(=O)=O)CC4)c3C)CC2)c2cc(CC(F)(F)F)sc2n1 [KO-539] |  |  |  |  | robust anti-leukemic activity |  |
| Cc1c(CN2CCC(Nc3ncnc4sc(CC(F)(F)F)cc34)CC2)ccc2c1cc(C#N)n2Cc1cn[nH]c1 [MI-503] |  |  |  |  |  | suppress the HOXA MEIS1 transcription program |
